According to US6670446B1, “N1 modified glycopeptides” (Eli Lilly and Company, priority 1998, dated 2003):

Key:
Type in all cases: cell-based
[1] = system: Staphylococcus epidermidis 270; experiment: MIC, standard broth micro-dilution assay, SE 270
Description: (§1) The antibacterial efficacy of the present compounds is illustrated by Table III. The minimal inhibitory concentrations (MICs) were determined using a standard broth micro-dilution assay.

[2] = system: Staphylococcus aureus 446; experiment: MIC, standard broth micro-dilution assay, SA 446
Description: as §1

[3] = system: Haemophilus influenzae RD; experiment: MIC, standard broth micro-dilution assay, HFRD
Description: as §1

[4] = system: Sensitive Enterococcus faecium and faecalis; experiment: MIC, standard broth micro-dilution assay, Sensitive; conditions: geometric mean of 4-6 isolates
Description: as §1

[5] = system: Staphylococcus haemolyticus 415; experiment: MIC, standard broth micro-dilution assay, SH 415
Description: as §1

Escherichia coli EC14 = experiment: MIC, standard broth micro-dilution assay, EC 14
Description: as §1

[6] = system: Staphylococcus aureus 489; experiment: MIC, standard broth micro-dilution assay, SA 489
Description: as §1

[7] = system: Staphylococcus aureus 447; experiment: MIC, standard broth micro-dilution assay, SA 447
Description: as §1

[8] = system: Staphylococcus aureus SA1199; experiment: MIC, standard broth micro-dilution assay, SA 1199
Description: as §1

[9] = system: Resistant Enterococcus faecium and faecalis; experiment: MIC, standard broth micro-dilution assay, Resistant; conditions: geometric mean of 4-6 isolates
Description: as §1

[10] = system: Enterococcus gallinarum 245; experiment: MIC, standard broth micro-dilution assay, EG 245
Description: as §1

Enterococcus faecium 180 = experiment: MIC, standard broth micro-dilution assay, EF 180
Description: as §1

[11] = system: Enterococcus faecalis 2041; experiment: MIC, standard broth micro-dilution assay, EF 2041
Description: as §1

[12] = system: Staphylococcus aureus 491; experiment: MIC, standard broth micro-dilution assay, SA 491
Description: as §1

[13] = system: Enterococcus faecalis 276; experiment: MIC, standard broth micro-dilution assay, EF 276
Description: as §1

[14] = system: Staphylococcus haemolyticus 105; experiment: MIC, standard broth micro-dilution assay, SH 105
Description: as §1

[15] = system: Staphylococcus aureus S13E
Description: as §1

[16] = system: Staphylococcus aureus X778; experiment: MIC, standard broth micro-dilution assay, SA X778
Description: as §1

[17] = system: Staphylococcus aureus X400; experiment: MIC, standard broth micro-dilution assay, SA X400
Description: as §1

[18] = system: Enterococcus faecium 180-1; experiment: MIC, standard broth micro-dilution assay, EF 180-1
Description: as §1

[19] = system: Staphylococcus aureus SA1199A; experiment: MIC, standard broth micro-dilution assay, SA 1199A
Description: as §1

| SMILES | minimal inhibitory concentration (MIC), SE 270 [1] | minimal inhibitory concentration (MIC), SA 446 [2] | minimal inhibitory concentration (MIC), HFRD [3] | minimal inhibitory concentration (MIC), Sensitive [4] | minimal inhibitory concentration (MIC), SH 415 [5] | minimal inhibitory concentration (MIC), EC 14 (Escherichia coli EC14) | minimal inhibitory concentration (MIC), SA 489 [6] | minimal inhibitory concentration (MIC), SA 447 [7] | minimal inhibitory concentration (MIC), SA 1199 [8] | minimal inhibitory concentration (MIC), Resistant [9] | minimal inhibitory concentration (MIC), EG 245 [10] | minimal inhibitory concentration (MIC), EF 180 (Enterococcus faecium 180) | minimal inhibitory concentration (MIC), EF 2041 [11] | minimal inhibitory concentration (MIC), SA 491 [12] | minimal inhibitory concentration (MIC), EF 276 [13] | minimal inhibitory concentration (MIC), SH 105 [14] | minimal inhibitory concentration (MIC), SA S13E [15] | minimal inhibitory concentration (MIC), SA X778 [16] | minimal inhibitory concentration (MIC), SA X400 [17] | minimal inhibitory concentration (MIC), EF 180-1 [18] | further results |
| --- | --- | --- | --- | --- | --- | --- | --- | --- | --- | --- | --- | --- | --- | --- | --- | --- | --- | --- | --- | --- | --- |
| CC(C)CC(NCc1ccc(-c2ccccc2)cc1)C(=O)NC1C(=O)NC(CC(N)=O)C(=O)NC2C(=O)NC3C(=O)NC(C(=O)NC(C(=O)O)c4cc(O)cc(O)c4-c4cc3ccc4O)C(OC3CC(C)(N)C(O)C(C)O3)c3ccc(c(Cl)c3)Oc3cc2cc(c3OC2OC(CO)C(O)C(O)C2OC2CC(C)(NCc3ccc(-c4ccccc4)cc3)C(O)C(C)O2)Oc2ccc(cc2Cl)C1O [Example 35, N^1-[N-(p-phenylbenzyl)-D-leucine] derivative of N^DISACC-(p-phenylbenzyl)desleucylA82846B] | 1 | 2 | >64 | 0.66 | 2 | >64 | 2 | 2 | 2 | 4.8 | 1 | 1 | 0.5 | 1 | 1 | 0.5 | 2 | 1 | 2 | 0.25 | minimal inhibitory concentration (MIC), SA 1199A [19]: 1 |
| CC1OC(OC2c3ccc(c(Cl)c3)Oc3cc4cc(c3OC3OC(CO)C(O)C(O)C3OC3CC(C)(NCc5ccc(-c6ccc(Cl)cc6)cc5)C(O)C(C)O3)Oc3ccc(cc3Cl)C(O)C(NC(=O)CCCCCCCc3ccccc3)C(=O)NC(CC(N)=O)C(=O)NC4C(=O)NC3C(=O)NC2C(=O)NC(C(=O)O)c2cc(O)cc(O)c2-c2cc3ccc2O)CC(C)(N)C1O (stereo not drawn) [Example 8, N^1-(8-phenyl-n-octanoyl)-N^DISACC-[p-(p-chlorophenyl)benzyl]desleucylA82846B] | 8 | 16 | >64 | 2 | 8 | >64 | 8 | 8 | 4 | 4 | 2 | 2 | 2 | 4 | 1 | 2 | 8 | 4 | 8 | 1 | minimal inhibitory concentration (MIC), SA 1199A [19]: 2 |
| CC(C)CC(N)C(=O)NC1C(=O)NC(CC(N)=O)C(=O)NC2C(=O)NC3C(=O)NC(C(=O)NC(C(=O)O)c4cc(O)cc(O)c4-c4cc3ccc4O)C(OC3CC(C)(N)C(O)C(C)O3)c3ccc(c(Cl)c3)Oc3cc2cc(c3OC2OC(CO)C(O)C(O)C2OC2CC(C)(NCc3ccc(-c4ccccc4)cc3)C(O)C(C)O2)Oc2ccc(cc2Cl)C1O [Example 27, N^1-L-leucine derivative of N^DISACC-(p-phenylbenzyl)desleucylA82846B] | 0.25 | 2 | 64 | 1 | 2 | >64 | 4 | 1 | 1 | 16 | 0.5 | 4 | 1 | 1 | 1 | 0.125 | 2 | 1 | 2 | 0.25 | minimal inhibitory concentration (MIC), SA 1199A [19]: 0.5 |
